This passage reports inhibition and IC50 results from patent US20120004228A1, “Bis Aromatic Compounds for Use as LTC4 Synthase Inhibitors” (BIOLIPOX AB, priority 2009, published 2012).

One may read the inhibition as the change of the read-out against control, counted positive when it falls. For orientation: IC50 means the concentration at which inhibition is half-maximal.

The target of the first assay is T1, Recombinant human LTC4 synthase (Homo sapiens, UniProt Q16873).
T1 construct: made in house; host or cells: Pichia pastoris ('Piccia pastoralis' [sic])
T1 sequence (Q16873 1-150): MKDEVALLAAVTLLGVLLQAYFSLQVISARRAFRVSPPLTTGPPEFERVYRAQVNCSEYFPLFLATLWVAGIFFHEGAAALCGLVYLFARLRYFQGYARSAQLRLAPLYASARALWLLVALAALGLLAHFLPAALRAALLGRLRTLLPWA
Description: In vitro LTC4 synthase assay (LTA4 to LTC4, HTRF detection).
Settings: not given
It is filed as biochemical. On the technique in general: Time-resolved FRET reads energy transfer from a long-lived donor to a nearby acceptor.
Take `CN(c1ccc(Cl)cc1)c1ccc(C(=O)c2cc(NC(=O)c3ccc(Cl)cc3Cl)cc(C(=O)O)c2)cc1` [Example 1:1, 3-{4-[(4-Chlorophenyl)(methyl)amino]benzoyl}-5-(2,4-dichlorobenzamido)benzoic acid]: the inhibition at 1 µM turned out to be 95%.

Another assay has as its target T1, Recombinant human LTC4 synthase. Described as above. Format: biochemical.
Settings: not given
The source holds these as a separate data set.
Consider `CN(c1ccc(Cl)cc1)c1ccc(C(=O)c2cc(NC(=O)c3ccc(Cl)cc3Cl)cc(C(=O)O)c2)cc1` [Example 1:1, 3-{4-[(4-Chlorophenyl)(methyl)amino]benzoyl}-5-(2,4-dichlorobenzamido)benzoic acid], for which the IC50 turned out to be 166 nM. Take `CN(c1ccc(Cl)cc1)c1ccc(C(=O)c2cc(Oc3ccc(F)c(F)c3)cc(C(=O)O)c2)cc1` [Example 8:9, 3-{4-[(4-Chlorophenyl)(methyl)amino]benzoyl}-5-(3,4-difluorophenoxy)benzoic acid]: the IC50 turned out to be 30 nM.

With `CN(c1ccc(Cl)cc1)c1ccc(C(=O)c2cc(NC(=O)c3cccc(C(F)(F)F)c3)cc(C(=O)O)c2)nc1` [Example 2:7, 3-{5-[(4-Chlorophenyl)(methyl)amino]picolinoyl}-5-[3-(trifluoromethyl)benzamido]-benzoic acid], the IC50 turned out to be 549 nM.

Take `CN(c1ccc(Cl)cc1)c1ccc(C(=O)c2cc(C(=O)O)cc(N(C)c3cccnc3)c2)nc1` [9:42, 3-{5-[(4-Chlorophenyl)(methyl)amino]picolinoyl}-5-[methyl(3-pyridyl)amino]-benzoic acid]: the half-maximal inhibitory concentration (IC50) came to 1550 nM.

Take `CN(c1ccc(Cl)cc1)c1ccc(C(=O)c2cc(C(=O)O)cc(C(=O)Nc3ccc(Cl)cc3)c2)nc1` [2:3, 3-{5-[(4-Chlorophenyl)(methyl)amino]picolinoyl}-5-(4-chlorophenyl-carbamoyl)-benzoic acid]: the IC50 worked out at 343 nM.

Take `CCOCCN(c1ccccc1)c1cc(C(=O)O)cc(C(=O)c2ccc(N(C)c3ccc(Cl)cc3)cn2)c1` [9:47, 3-{5-[(4-Chlorophenyl)(methyl)amino]picolinoyl}-5-[(2-ethoxyethyl)(phenyl)-amino]benzoic acid]: the concentration for half-maximal inhibition (IC50) is 60 nM. In the case of `CN(c1ccc(Cl)cc1)c1ccc(C(=O)c2cc(Nc3ccccc3)cc(C(=O)O)c2)cc1` [10:8, 3-{4-[(4-Chlorophenyl)(methyl)amino]benzoyl}-5-phenylamino-benzoic acid], the half-inhibitory concentration (IC50) was 80 nM. The same measure, in the same setting: the result for `CN(c1ccc(Cl)cc1)c1ccc(C(=O)c2ccc(Nc3ccc(Cl)cc3)cc2)c(C(=O)O)c1` [6:3, 2-[4-(4-Chlorophenylamino)benzoyl]-5-[(4-chlorophenyl)(methyl)amino]-benzoic acid] reads 224 nM.

Consider `CN(c1ccc(Cl)cc1)c1ccc(C(=O)c2cc(C(=O)O)cc(N3CCOCC3)c2)nc1` [9:36, 3-{5-[(4-Chlorophenyl)(methyl)amino]picolinoyl}-5-(4-morpholinyl)benzoic acid], for which the 50% inhibitory concentration (IC50) is 1000 nM. The same measure, in the same setting: for `CN(c1ccc(Cl)cc1)c1ccc(C(=O)c2cc(Oc3ccc(F)c(F)c3)cc(C(=O)O)c2)nc1` [8:2, 3-{5-[(4-Chlorophenyl)(methyl)amino]picolinoyl}-5-(3,4-difluorophenoxy)-benzoic acid] the value was 41 nM; for `CC(C)OCC(O)CN(c1ccccc1)c1cc(C(=O)O)cc(C(=O)c2ccc(N(C)c3ccc(Cl)cc3)cc2)c1` (stereo not shown) [Example 10:38, 3-{4-[(4-Chlorophenyl)(methyl)amino]benzoyl}-5-[(2-hydroxy-3-isopropoxy-propyl)(phenyl)amino]benzoic acid], 183 nM.

Staying with this assay, now noted: 5 min; total concentration of title compound in the assay 10 μM.
Take `CN(c1ccc(Cl)cc1)c1ccc(C(=O)c2ccc(Nc3ccc(Cl)cc3)cc2)c(C(=O)O)c1` [6:3, 2-[4-(4-Chlorophenylamino)benzoyl]-5-[(4-chlorophenyl)(methyl)amino]-benzoic acid]: the inhibition at 10 µM turned out to be 99%.
